Reference: patent publication US12122761B2, “2-azaspiro[3.4]octane derivatives as M4 agonists” (NOVARTIS AG, priority 2019, dated 2024)

Assays:
[1] = biological target: T1, Cloned human M1 receptor (CHRM1) stably expressed in HEK293 cells (Homo sapiens, UniProt P11229); experiment: CHRM1 Ca++ Flux Assay (agonist mode, FDSS 7000EX); format: cell-based; conditions: for Emax: HEK293, Percent Activity, read-out: M1 FDSS PA; for EC50: geometric mean if tested more than once
T1 construct: expressed in transfected cells; host or cells: HEK293
T1 sequence (P11229 1-460): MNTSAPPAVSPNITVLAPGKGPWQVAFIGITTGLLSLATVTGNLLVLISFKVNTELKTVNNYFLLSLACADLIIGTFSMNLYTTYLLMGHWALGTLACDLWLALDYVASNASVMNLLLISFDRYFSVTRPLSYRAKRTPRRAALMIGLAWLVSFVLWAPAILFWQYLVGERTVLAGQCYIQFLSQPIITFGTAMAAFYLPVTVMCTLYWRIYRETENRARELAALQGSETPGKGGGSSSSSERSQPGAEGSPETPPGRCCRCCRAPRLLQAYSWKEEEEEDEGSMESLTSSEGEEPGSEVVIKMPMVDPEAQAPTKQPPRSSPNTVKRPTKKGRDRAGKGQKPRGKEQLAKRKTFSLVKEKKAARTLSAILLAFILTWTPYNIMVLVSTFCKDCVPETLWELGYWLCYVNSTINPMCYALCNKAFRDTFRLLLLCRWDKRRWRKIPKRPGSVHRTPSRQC
How it was run: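 Compounds tested as agonists at 11 concentrations in triplicate, with calcium traces captured over 3 minutes. Cells were HEK293 with stable human CHRM1 expression, plated overnight at 25K/well and loaded with calcium dye. Responses normalized to carbachol EC100 and fitted by four-parameter nonlinear regression.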

[2] = biological target: T2, human cloned CHRM2 receptor (M2_CHO cells) (Homo sapiens, UniProt P08172); experiment: CHRM2 Ca++ Flux Assay (agonist mode, FDSS 7000EX); format: cell-based; conditions: for Emax: Percent Activity measured to EC100 of Carbachol, read-out: M2 FDSS PA
T2 construct: expressed in transfected cells; host or cells: CHO-K1
T2 sequence (P08172 1-466): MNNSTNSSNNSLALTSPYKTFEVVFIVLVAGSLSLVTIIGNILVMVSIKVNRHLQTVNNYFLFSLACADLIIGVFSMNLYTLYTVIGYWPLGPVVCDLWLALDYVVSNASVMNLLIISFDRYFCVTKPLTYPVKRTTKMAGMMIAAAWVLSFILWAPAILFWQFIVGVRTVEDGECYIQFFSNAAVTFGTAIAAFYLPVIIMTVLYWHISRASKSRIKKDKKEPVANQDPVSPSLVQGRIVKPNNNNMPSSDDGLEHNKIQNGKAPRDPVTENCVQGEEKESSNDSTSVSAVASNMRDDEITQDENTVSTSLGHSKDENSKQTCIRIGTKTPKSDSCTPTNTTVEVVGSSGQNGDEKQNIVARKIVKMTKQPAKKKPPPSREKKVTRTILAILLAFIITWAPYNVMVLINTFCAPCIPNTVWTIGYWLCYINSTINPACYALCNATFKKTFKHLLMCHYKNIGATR
How it was run: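 Response expressed as percent activity versus the Carbachol EC100, with curves fitted by four-parameter non-linear regression of triplicates. Stable M2_CHO cells were Ca++ dye-loaded and preincubated 60 min at room temperature in assay buffer containing 20 μM ATP; signal imaged for 3 minutes after compound.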

Emax [1] [%]	EC50 [1] [nM]	Emax [2] [%]	EC50 ([2]; agonist mode, geometric mean if tested more than once, read-out: M2 FDSS EC50) [nM]	SMILES
0	> 25000	36	7880	Cc1ccc(N2CC3(CC[C@@H](N4CCC(c5ccccc5O[C@@H]5CCOC5)CC4)C3)C2)cn1 [Example 5L, (R)-2-(6-methylpyridin-3-yl)-6-(4-(2-(((R)-tetrahydrofuran-3-yl)oxy)phenyl)piperidin-1-yl)-2-azaspiro[3.4]octane]
0	> 25000	0	–	COc1ccccc1C1CCN([C@@H]2CCC3(C2)CN(c2ncnc(C)n2)C3)CC1 [Example 5M, (R)-6-(4-(2-methoxyphenyl)piperidin-1-yl)-2-(4-methyl-1,3,5-triazin-2-yl)-2-azaspiro[3.4]octane]
0	> 25000	35	–	COc1ccccc1C1CCN([C@@H]2CCC3(C2)CN(c2ccc(Cl)nn2)C3)CC1 [Example 5N, (R)-2-(6-chloropyridazin-3-yl)-6-(4-(2-methoxyphenyl)piperidin-1-yl)-2-azaspiro[3.4]octane]
27	1340	0	–	COc1ccccc1C1CCN([C@@H]2CCC3(C2)CN(c2cccnn2)C3)CC1 [Example 5O, (R)-6-(4-(2-methoxyphenyl)piperidin-1-yl)-2-(pyridazin-3-yl)-2-azaspiro[3.4]octane]
60	196	16	–	COc1ccc(Cl)cc1C1CCN([C@@H]2CCC3(C2)CN(c2ccnnc2)C3)CC1 [Example 5P, (R)-6-(4-(5-chloro-2-methoxyphenyl)piperidin-1-yl)-2-(pyridazin-4-yl)-2-azaspiro[3.4]octane]
0	> 25000	0	–	c1ccc(C2CCN([C@@H]3CCC4(C3)CN(c3ncncn3)C4)CC2)c(OCC2CCOCC2)c1 [Example 5Q, (R)-6-(4-(2-((tetrahydro-2H-pyran-4-yl)methoxy)phenyl)piperidin-1-yl)-2-(1,3,5-triazin-2-yl)-2-azaspiro[3.4]octane]
41	2030	0	–	COc1ccccc1C1CCN([C@@H]2CCC3(C2)CN(c2cc(Cl)nnc2Cl)C3)CC1 [Example 5R, (R)-2-(3,6-dichloropyridazin-4-yl)-6-(4-(2-methoxyphenyl)piperidin-1-yl)-2-azaspiro[3.4]octane]
45	1040	0	–	COc1ccccc1C1CCN([C@@H]2CCC3(C2)CN(c2ccnnc2)C3)CC1 [Example 5S, (R)-6-(4-(2-methoxyphenyl)piperidin-1-yl)-2-(pyridazin-4-yl)-2-azaspiro[3.4]octane]
